Data taken from ChEMBL document CHEMBL1201862, “PubChem BioAssay data set” (2004).
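Five compound concentrations were applied to cells in 96-well plates for 48 hours; endpoints were derived by simple linear interpolation of the resulting dose-response curve. GI50: concentration for 50% inhibition of growth.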 Calls of active or inactive are those of the source. Cut-off read from the data, not from the text of the source: active = GI50 up to about 1.1 µM and inactive = higher.

How the values were obtained:
Assay in all cases: DTP human tumour cell line panel, 48 h
COLO 205 = tested on: COLO 205
HOP-92 = tested on: HOP-92
HT-29 = tested on: HT-29
LOX IMVI = tested on: LOX IMVI
M14 = tested on: M14
MDA-MB-231 = tested on: MDA-MB-231
Malme-3M = tested on: Malme-3M
NCI-H23 = tested on: NCI-H23
NCI-H522 = tested on: NCI-H522
NCI/ADR-RES = tested on: NCI/ADR-RES
OVCAR-8 = tested on: OVCAR-8
RPMI-8226 = tested on: RPMI-8226
SF-268 = tested on: SF-268
SF-539 = tested on: SF-539
SK-MEL-28 = tested on: SK-MEL-28
SK-MEL-2 = tested on: SK-MEL-2
SNB-19 = tested on: SNB-19
UACC-257 = tested on: UACC-257
UO-31 = tested on: UO-31
HCC 2998 = tested on: HCC 2998

Measured: GI50

O=[N+]([O-])c1cc(Cc2cc([N+](=O)[O-])c3cccnc3c2O)c(O)c2ncccc12
inactive: COLO 205 19.7 µM | HOP-92 5.96 µM | HT-29 10.2 µM | LOX IMVI 3.91 µM | M14 6.07 µM | MDA-MB-231 3.4 µM | Malme-3M 6.68 µM | NCI-H23 9.48 µM | NCI-H522 3.51 µM | NCI/ADR-RES 3.6 µM | OVCAR-8 3.6 µM | RPMI-8226 4.57 µM | SF-268 3.52 µM | SF-539 10.6 µM | SK-MEL-28 13.6 µM | SK-MEL-2 11.1 µM | SNB-19 6.78 µM | UACC-257 2.65 µM | UO-31 4 µM

O=[N+]([O-])c1ccc2[nH]c(-c3ccc(Cl)cc3)nc2c1
inactive: COLO 205 16.7 µM | HOP-92 29 µM | HT-29 18.5 µM | LOX IMVI 18.1 µM | M14 19.1 µM | MDA-MB-231 15.5 µM | Malme-3M 28.4 µM | NCI-H23 25.3 µM | NCI-H522 12.6 µM | NCI/ADR-RES 21.2 µM | OVCAR-8 30.1 µM | RPMI-8226 23.2 µM | SF-268 19 µM | SF-539 21.1 µM | SK-MEL-28 39 µM | SNB-19 26 µM | UACC-257 20.5 µM | UO-31 23.9 µM

Sc1ncc2[nH]nnc2n1
inactive: COLO 205 > 100 µM | HCC 2998 > 100 µM | HOP-92 > 100 µM | HT-29 > 100 µM | LOX IMVI > 100 µM | MDA-MB-231 > 100 µM | Malme-3M > 100 µM | NCI-H23 > 100 µM | NCI-H522 > 100 µM | NCI/ADR-RES > 100 µM | OVCAR-8 > 100 µM | RPMI-8226 > 100 µM | SF-268 > 100 µM | SF-539 > 100 µM | SK-MEL-28 > 100 µM | SNB-19 > 100 µM | UACC-257 > 100 µM | UO-31 > 100 µM

NNc1nnc(-c2nnc(NN)o2)o1
inactive: COLO 205 > 10 µM | HCC 2998 > 10 µM | HOP-92 > 10 µM | HT-29 > 10 µM | M14 > 10 µM | MDA-MB-231 > 10 µM | Malme-3M > 10 µM | NCI-H23 > 10 µM | NCI/ADR-RES > 10 µM | OVCAR-8 > 10 µM | RPMI-8226 > 10 µM | SF-268 > 10 µM | SF-539 > 10 µM | SK-MEL-28 > 10 µM | SNB-19 > 10 µM | UACC-257 > 10 µM | UO-31 > 10 µM

CN1C2CCC1CC(CC(=O)NC(c1ccc(F)cc1)c1ccc(F)cc1)C2 (stereo unspecified)
inactive: COLO 205 21.5 µM | HOP-92 60 µM | HT-29 38.6 µM | LOX IMVI 80 µM | M14 18 µM | MDA-MB-231 > 100 µM | Malme-3M 27.5 µM | NCI-H23 > 100 µM | NCI-H522 > 100 µM | NCI/ADR-RES > 100 µM | OVCAR-8 > 100 µM | RPMI-8226 47 µM | SF-268 98.4 µM | SF-539 70 µM | SK-MEL-28 22.5 µM | SK-MEL-2 22.5 µM | SNB-19 > 100 µM | UACC-257 20 µM | UO-31 56.1 µM

CC1CCCC(C(O)CC2CC(=O)NC(=O)C2)C1O (stereo unspecified)
inactive: COLO 205 > 100 µM | HCC 2998 > 100 µM | HOP-92 > 100 µM | HT-29 > 100 µM | LOX IMVI > 100 µM | M14 > 100 µM | MDA-MB-231 > 100 µM | Malme-3M > 100 µM | NCI-H23 > 100 µM | NCI/ADR-RES > 100 µM | OVCAR-8 > 100 µM | RPMI-8226 > 100 µM | SF-268 > 100 µM | SF-539 > 100 µM | SK-MEL-28 > 100 µM | SK-MEL-2 > 100 µM | SNB-19 > 100 µM | UACC-257 > 100 µM | UO-31 > 100 µM

O/N=C(\CC(O)(C(F)(F)F)C(F)(F)F)c1cccs1
inactive: COLO 205 > 10 µM | HCC 2998 > 10 µM | HOP-92 > 10 µM | HT-29 > 10 µM | LOX IMVI > 10 µM | M14 > 10 µM | MDA-MB-231 > 10 µM | Malme-3M > 10 µM | NCI-H23 > 10 µM | NCI-H522 > 10 µM | NCI/ADR-RES > 10 µM | OVCAR-8 > 10 µM | RPMI-8226 > 10 µM | SF-268 > 10 µM | SF-539 > 10 µM | SK-MEL-28 > 10 µM | SK-MEL-2 > 10 µM | SNB-19 > 10 µM | UACC-257 > 10 µM | UO-31 > 10 µM

CC(=O)OCC1OC(n2ncc(=O)[nH]c2=O)C(OC(C)=O)C1OC(C)=O (stereo unspecified)
inactive: COLO 205 11.3 µM | HCC 2998 26.1 µM | HOP-92 > 100 µM | HT-29 6.67 µM | LOX IMVI 6.3 µM | M14 73.5 µM | MDA-MB-231 > 10 µM | Malme-3M > 100 µM | NCI-H23 68.5 µM | NCI-H522 19.1 µM | NCI/ADR-RES 61.7 µM | OVCAR-8 14.7 µM | RPMI-8226 > 100 µM | SF-268 5.33 µM | SF-539 30.3 µM | SK-MEL-28 > 100 µM
